Laboratory results published in US20250057930A1, “ANAPLASTIC LYMPHOMA KINASE (ALK) CANCER VACCINES AND METHODS OF USE THEREOF” (The Children's Medical Center Corporation, priority 2022, published 2025).

Tested on: H2-Dd expression
Assay: H2-Dd surface expression on MHC-I^low lung tumor escaper cell lines (flow cytometry)
Format: cell-based, mouse
Conditions: H2-Dd-downregulated cell lines; ADU-S100 50 μM, 24 h
Experimental: To uncover the mechanisms that would explain this resistance to treatment, ex vivo escaped tumors were isolated from each treatment group. […] To understand whether the observed H2-Dd downregulation was sufficient to impair tumor rejection, tumor cells with high H2-Dd isolated from untreated mice or tumor cells with low H2-Dd isolated from ALK vaccinated mice and treated with ICI were injected. Treatment with ICI induced rejection of tumors with high H2-Dd expression (FIGS. 6D-6E), consistent with previous experiments (FIG. 3E), but not of escaped tumors with low H2-Dd expression (FIGS. 6F-6G). Finally, it was asked whether H2-Dd expression could be restored by Stimulator of IFN genes (STING) signaling that can increase MHC-I expression in other models of lung cancer.
Allophycocyanin (APC)-conjugates H-2D^d-[…] (SEQ ID NO: 22) Dextramer reagents were obtained from Immudex (Immudex, Denmark). […] After washing step, cells were ready to be acquired. When referred, also PD-1 (clone RMP1-30; BV421-PD-1, BD Pharmingen™, USA) expression was evaluated together with dextramer staining, being added together with FITC-CD8. H2-Dd MHC-I expression was measured on relapsed tumors after treatment. […] All cells were acquired in a BD Celesta flow cytometer (BD Bioscience, USA) and analyzed by using the FlowJo software (FlowJo LCC, USA). […]

Compound: Nc1ncnc2c1ncn2[C@@H]1O[C@@H]2CO[P@](=O)(S)O[C@@H]3[C@H](O)[C@@H](CO[P@@](=O)(S)O[C@H]2[C@H]1O)O[C@H]3n1cnc2c(N)ncnc21 [ADU-S100, reference compound]
- H2-Dd expression: strongly upregulating H2-Dd expression
